Where “and” joins values, the source holds several entries; their conditions need not be identical. Equal values may be shown once.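 All cell lines were grown in 96-well plates and treated with compound for 48 hours. At the GI50, growth is halved. Definition used: TGI = concentration required for complete inhibition of growth.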
Assays:
Experiment in all cases: DTP human tumour cell line panel, 48 h
SNB-75 CNS = system: SNB-75 CNS
MALME-3M melanoma = system: MALME-3M melanoma
SK-OV-3 ovarian = system: SK-OV-3 ovarian
RPMI-8226 leukemia = system: RPMI-8226 leukemia
TK-10 renal = system: TK-10 renal
HCT-116 colon = system: HCT-116 colon
IGROV1 ovarian = system: IGROV1 ovarian
U251 CNS = system: U251 CNS
HCC-2998 colon = system: HCC-2998 colon
OVCAR-5 ovarian = system: OVCAR-5 ovarian

| SMILES | TGI (SNB-75 CNS) | TGI (MALME-3M melanoma) | TGI (SK-OV-3 ovarian) | TGI (RPMI-8226 leukemia) | TGI (TK-10 renal) | TGI (HCT-116 colon) | TGI (IGROV1 ovarian) | TGI (U251 CNS) | TGI (HCC-2998 colon) | TGI (OVCAR-5 ovarian) | GI50 (SNB-75 CNS) | GI50 (MALME-3M melanoma) | GI50 (SK-OV-3 ovarian) | GI50 (RPMI-8226 leukemia) | GI50 (TK-10 renal) | GI50 (HCT-116 colon) | GI50 (IGROV1 ovarian) | GI50 (U251 CNS) | GI50 (HCC-2998 colon) | GI50 (OVCAR-5 ovarian) |
| --- | --- | --- | --- | --- | --- | --- | --- | --- | --- | --- | --- | --- | --- | --- | --- | --- | --- | --- | --- | --- |
| CCOC(=O)CNC1C(NC(C)=O)C(OC)OC2COC(c3ccccc3)OC21 (stereo unspecified) | > 100 µM | > 100 µM | > 100 µM | > 100 µM | > 100 µM | > 100 µM | > 100 µM | > 100 µM | > 100 µM | > 100 µM | – | – | – | – | – | – | – | – | – | – |
| O=C1CCC2=C3C4CCCCC4C(=O)C4CCCC(OC2C1)C34 (stereo unspecified) | > 43.8 µM | 1.98 µM | > 100 µM | 2.65 µM | > 29.5 µM | > 31.1 µM | 6.15 µM | > 20.2 µM | 15.7 µM | > 100 µM | 5.23 µM | 0.418 µM | 5.18 µM | 0.398 µM | 6.36 µM | 0.316 µM | 1.64 µM | 0.428 µM | 3.41 µM | > 20.6 µM |
| Cc1[nH]c2ccccc2c1C1CC(=O)NC1=O (stereo unspecified) | > 100 µM | > 100 µM | > 100 µM | > 100 µM | > 100 µM | > 100 µM | > 100 µM | > 100 µM | > 100 µM | > 100 µM | – | – | – | – | – | – | – | – | – | – |
| CC1OC(O[C@H]2/C=C/C=C/C=C/C=C/C=C/C=C/C=C/[C@H](C)[C@@H](O)[C@@H](C)[C@H](C)OC(=O)C[C@H](O)C[C@H](O)CC[C@@H](O)[C@H](O)C[C@H](O)C[C@]3(O)C[C@H](O)[C@@H](C(=O)O)[C@H](C2)O3)C(O)C(N)C1O (stereo partly specified) | 61.7 µM | 15.3 µM | 70.1 µM | 60.3 µM | 46.3 µM | 50.2 µM | 20.7 µM | 40.6 µM | 61.2 µM | 62.3 µM | 32.7 µM | 5.47 µM | – | 23.9 µM | 27.2 µM | – | – | 14.3 µM | – | 27.3 µM |
| CC([C@H]1CCC2C3CCC4CC5(CC[C@]4(C)C3CC[C@@]21C)c1ccccc1C(=O)N5C)N(C)C (stereo partly specified) | 74.1 µM | 42.5 µM | > 100 µM | > 100 µM | > 100 µM | > 100 µM | > 100 µM | > 100 µM | > 100 µM | > 100 µM | – | – | – | – | – | – | – | – | – | – |
| O=C(O[C@H]1CN[C@H](C#Cc2cc3ncnc(Nc4ccc(OCc5cccc(F)c5)c(Cl)c4)c3s2)C1)N1CCOCC1 | > 25 µM | 10.2 µM | > 25 µM | 17.3 µM | 8.41 µM | > 25 µM | > 25 µM | > 25 µM | 12.6 µM | > 25 µM | 7.73 µM | 4.95 µM | 0.0356 µM | 4.48 µM | 0.17 µM | 7.99 µM | 2.69 µM | 8.7 µM | 5.01 µM | 10.5 µM |
| O=S1c2ccccc2N=C(c2ccc(Cl)cc2)CC1c1cccs1 (stereo unspecified) | > 100 µM | > 100 µM | 85.4 µM | 56.2 µM | > 100 µM | 24.3 µM | 35.7 µM | 28.9 µM | 36.9 µM | 61.3 µM | – | – | – | – | – | – | – | – | – | – |
| COc1cc2c(Nc3ccc(Br)cc3F)ncnc2cc1OCC1CCN(C)CC1 | 5.79 µM and > 10 µM | 3.85 µM and > 10 µM | 7.06 µM and > 10 µM | 14 µM and > 10 µM | 6.58 µM and > 10 µM | 15.1 µM and > 10 µM | 3.61 µM and 5.27 µM | 17.1 µM and > 10 µM | 21.6 µM and > 10 µM | 18.7 µM and > 10 µM | 0.737 µM and 1.13 µM | 1.83 µM and 4.47 µM | 1.2 µM and 1.67 µM | 3.33 µM and 6.84 µM | 0.317 µM and 0.54 µM | 3.8 µM and 4.32 µM | 0.408 µM and 0.398 µM | 4.81 µM and 7.68 µM | 7.38 µM and > 10 µM | 2.65 µM and 3.23 µM |
| CCC(c1ccc(OC)cc1)C(CC)c1ccc(O)c(CN2CCCC2)c1 (stereo unspecified) | 15.5 µM | 3.95 µM | 12.9 µM | 6.28 µM | 10.8 µM | 12.5 µM | 23.6 µM | 5.67 µM | 4.38 µM | 27.8 µM | 3.28 µM | 1.76 µM | 3.68 µM | 2.24 µM | 2.35 µM | 3.44 µM | 8.63 µM | 2.25 µM | 2.29 µM | 12.3 µM |

— PubChem BioAssay (NCI)
